Data set [1] relates to Green Peach Aphid (Myzus persicae, MYZUPE). Kind of data set: Green Peach Aphid (GPA) foliar spray bioassay on cabbage seedlings. Format: in vivo. As to conditions: for Mean LC50 PPM: cabbage seedlings, live aphids counted three days after treatment, Abbott-corrected % control; for % (percent increase in the Mean LC50 required compared to F1): relative to F1. As to the method: (§1) F1, CE1, CE2, CE3, and CE4 (2 mg each) were each dissolved in 2 mL of acetone/methanol (1:1) solvent, forming stock solutions of 1000 ppm for each test molecule. The stock solutions were diluted 5× with 0.025% Tween® 20 in water to obtain test solutions at 200 ppm for each test molecule. Subsequent 4× dilutions, in water containing 0.025% Tween® 20 and 10% acetone/methanol (1:1), were used to generate the desired concentrations for dose responses. A minimum of 5 concentrations of each test molecule were used for each assay.
Test solutions of Formula One and the Comparative Examples, prepared as described above, were tested against GPA using the following procedure.
Cabbage seedlings grown in 3-inch pots, with 2-3 small (3-5 cm) true leaves, were used as test substrate. The seedlings were infested with 20-50 GPA (wingless adult and nymph stages) one day prior to chemical application. Four pots with individual seedlings were used for each treatment. A hand—held aspirator—type sprayer was used for spraying a solution to both sides of […] leaves until runoff. Reference plants (solvent check) were sprayed with the diluent only (0.025% Tween® 20 and 10% acetone/methanol (1:1) in water). Treated plants were held in a holding room for three days at approximately 25° C. and ambient relative humidity (RH) prior to grading. Evaluation was conducted by counting the number of live aphids per plant under a microscope three days after treatment. Percent control was measured using Abbott's correction formula (W. S. Abbott, “A Method of Computing the Effectiveness of an Insecticide” J. Econ. Entomol. 18 (1925), pp.265-267) as follows:
(§2) Corrected % Control=100*(X−Y)/X
where X=No. of live aphids on solvent check plants and Y=No. of live aphids on treated plants. Bioassay 2: Sweetpotato Whitefly (Bemisia tabaci, BEMITA) (“SPW”).

The test system of data set [2] is Sweetpotato Whitefly (Bemisia tabaci, BEMITA). Kind of data set: Sweetpotato Whitefly (SPW) foliar spray bioassay on cotton seedlings. Format: in vivo. As to conditions: for Mean LC50 PPM: cotton seedlings sprayed at crawler emergence, 2-3 instar nymphs counted 7-9 days after treatment, Abbott-corrected % control; for % (percent increase in the Mean LC50 required compared to F1): relative to F1. The method, then:
as §1
Test solutions of Formula One and the Comparative Examples, prepared as described above, were tested against SPW using the following procedure.
Cotton seedlings grown in 3-inch pots, pruned so that only one true leaf remained, were used as test substrate. Adult B. tabaci were allowed to colonize these plants and lay eggs for 24 hours after which all adults were removed from the plants using compressed air. Plants were monitored for egg development and, when crawler emergence was underway (>25% emergence based on visual examination using a microscope), the plants were sprayed using the test solutions and methods described above for green peach aphids (GPA). Treated plants were held in a holding room at approximately 25° C. and ambient relative humidity (RH) prior to grading. Evaluation was conducted by counting the number of developed 2-3 instar nymphs per plant under a microscope 7-9 days after treatment. Percent control was measured using Abbott's correction formula (W. S. Abbott, “A Method of Computing the Effectiveness of an Insecticide” J. Econ. Entomol. 18 (1925), pp.265-267) as follows:
as §2
where X=No. of live nymphs on solvent check plants and Y=No. of live nymphs on treated plants.

On to `CC(C(=O)N(C)c1cn(-c2cccnc2)nc1Cl)S(C)(=O)=O` (stereo not drawn) [CE1, N-(3-chloro-1-(pyridin-3-yl)-1H-pyrazol-4-yl)-N-methyl-2-(methylsulfonyl)propanamide], for which the “Mean LC50 PPM” value in data set [1] is listed as 0.29 PPM; in data set [2], 5.61 PPM. The “% (percent increase in the Mean LC50 required compared to F1)” value is 314% in data set [1] and 15% in data set [2].

Consider `CN(C(=O)CS(C)(=O)=O)c1cn(-c2cccnc2)nc1Cl` [CE2, N-(3-chloro-1-(pyridin-3-yl)-1H-pyrazol-4-yl)-N-methyl-2-(methylsulfonyl)acetamide], for which, in data set [1], the “Mean LC50 PPM” value stood at 0.52 PPM and the “% (percent increase in the Mean LC50 required compared to F1)” value turned out to be 643%. Besides, in data set [2], the “Mean LC50 PPM” value turned out to be 21.01 PPM and the “% (percent increase in the Mean LC50 required compared to F1)” value was 331%.

As to `CS(=O)(=O)CC(=O)Nc1cn(-c2cccnc2)nc1Cl` [CE3, N-(3-chloro-1-(pyridin-3-yl)-1H-pyrazol-4-yl)-2-(methylsulfonyl)acetamide], the “Mean LC50 PPM” value was 0.05 PPM in data set [1] and 25.35 PPM in data set [2]. In addition, the figures for the “% (percent increase in the Mean LC50 required compared to F1)” value in data set [1] and in data set [2] were −29% and 421%, respectively.

Turning to `CC(C)(C(=O)Nc1cn(-c2cccnc2)nc1Cl)S(C)(=O)=O` [CE4, N-(3-chloro-1-(pyridin-3-yl)-1H-pyrazol-4-yl)-2-methyl-2-(methylsulfonyl)propanamide], the “Mean LC50 PPM” value in data set [1] turned out to be 2.17 PPM; in data set [2], 9.72 PPM. The “% (percent increase in the Mean LC50 required compared to F1)” value in data set [1] turned out to be 3000%; in data set [2], 100%.

`CC(C(=O)Nc1cn(-c2cccnc2)nc1Cl)S(C)(=O)=O` (stereo not drawn) [Molecule F1, N-(3-chloro-1-(pyridin-3-yl)-1H-pyrazol-4-yl)-2-(methylsulfonyl)propanamide]: the “Mean LC50 PPM” value in data set [1] amounted to 0.07 PPM; in data set [2], 4.87 PPM.

The values are drawn from patent US20230040279A1, “COMPOSITIONS HAVING PESTICIDAL UTILITY AND PROCESSES RELATED THERETO” (CORTEVA AGRISCIENCE LLC, priority 2019, published 2023).
